Source: US20220218627A1 (priority 2019, published 2022)

Tests used:
[1] = test system: Cluster headache patients; settings: human, in vivo
[2] = in vivo; cited from earlier work
[3] = test system: pediatric procedural pain; settings: in vivo; cited from earlier work
acute traumatic pain = settings: in vivo; cited from earlier work
[4] = test system: major depressive disorder; settings: in vivo; cited from earlier work
[5] = test system: migraine or Cluster headache patients; settings: in vivo, iv; cited from earlier work

CCN(CC)CC(=O)Nc1c(C)cccc1C [lidocaine]
Case 3: success in shutting the cluster episode down ([1]; iv): only partial success

CNC1(c2ccccc2Cl)CCCCC1=O (stereo not drawn) [ketamine, 2-(2-chlorophenyl)-2-(methylamino)cyclohexanone]
Case 1: number of sprays after which patient reported feeling better [1]: 2-3 sprays | Case 1: side effects (dysphoria, out-of-body) [1]: no side effects | Case 2: cluster headache episode frequency over about a year [1]: beginning to get less frequent | Case 3: long-term course of cluster headache episodes [1]: only had one short cluster headache episode in the last three to four years | Cases 1-3: change from initial baseline on 0 to 10 Visual Analogue Scale (VAS) [1]: above 65% | Cases 1-3: dysphoria or nausea [1]: Increased dysphoria or nausea was not noted | Cases 1-3: out-of-body experiences or hallucinations [1]: No out-off body experiences, or hallucinations were observed | Case 1: outcome of IV treatment on cluster headaches ([1]; iv): complete cessation of the cluster headaches in three days | Case 2: change in cluster headache frequency ([1]; iv): from 5 episodes per day to only one cluster headache in the next week | Case 3: shortening of the duration of the cluster episode ([1]; iv): greater than two-thirds | terminal plasma half-life [2]: 2 to 3 h | time to peak plasma concentrations [2]: 10 to 15 min | onset of analgesia [3]: rapid onset of analgesia | side effects [3]: only slight sedation | efficacy in pain treatment compared to morphine IV or IM (acute traumatic pain): equal efficient in pain treatment | hallucinations or out-of-body experience (acute traumatic pain): No patients complained of hallucinations or out of-body experience | side effects (acute traumatic pain): mainly dizziness | time to onset (acute traumatic pain): approx. 15 min | effect on depressive symptoms [4]: rapid improvement of the depressive symptoms | serious adverse effects [4]: No serious adverse effects occurred | patients complaining of spaciness, fearfulness, jitteriness or lack of personal control [5]: approximately 43% | patients experiencing nausea at some point during treatment [5]: 3.2%

CCCC(CCC)C(=O)O [Depacon]
Case 3: success in shutting the cluster episode down ([1]; iv): only partial success
